Results from publication PMC7021098 (Journal of Antimicrobial Chemotherapy, 2019).
Where two headings read alike, the source gives them in different places. Marks after values point to notes of the source that are not given here.

Key:
[1] = cited from earlier work
WT HIV-1 = details: cited from earlier work; for in vitro EC50 for WT HIV-1: ref 10 (cabotegravir), 37 (rilpivirine)
P-glycoprotein = details: in vitro; ref 42 (cabotegravir), 43 (rilpivirine); cited from earlier work
[2] = Cabotegravir and rilpivirine concentrations in plasma and CSF by HPLC-MS/MS; format: in vivo, HIV-infected adults; details: for Total plasma drug / Total CSF drug / Unbound plasma drug / Total CSF/total plasma (%) / Kp: median (minimum–maximum); for Total CSF/total plasma (%) / Kp: paired samples; for Kp: human, CSF/plasma, intramuscular, Total CSF/total plasma (%)
[3] = test system: breast cancer resistance protein (BCRP); details: in vitro; ref 42 (cabotegravir), 43 (rilpivirine); cited from earlier work
plasma proteins = details: cited from earlier work
[4] = Phase 1, monthly IM LA, cited from earlier work
[5] = cited from earlier work; for reported CSF distribution: other NNRTIs
[6] = Q4W, n = 3, 7 ± 3 days after injection
[7] = Q8W, n = 15, 7 ± 3 days after injection

For `O=C(NCc1c(F)cc(F)cc1F)c1cn2c(c(O)c1=O)C(=O)N1[C@H]3CC[C@H](C3)O[C@@H]1C2` [bictegravir], the “protein binding in CSF” value [1] is listed as “predominantly protein-bound”.

In the case of `C[C@H]1CO[C@@H]2Cn3cc(C(=O)NCc4ccc(F)cc4F)c(=O)c(O)c3C(=O)N12` [cabotegravir], the EC50 (WT HIV-1; read-out: EC50 for WT HIV-1 clade B) is listed as 0.25 nM, the “in vitro EC50 for WT HIV-1” value (WT HIV-1) is listed as 0.10 ng/mL and the “substrate for P-glycoprotein” value (P-glycoprotein) is listed as “substrate”. For the same molecule, the Total plasma drug ([2]; Q4W (cabotegravir LA 400 mg + rilpivirine LA 600 mg IM every 4 weeks), n = 3, 7 ± 3 days after injection) was 3.02 (2.37–5.10) μg/mL, the “median CSF level, fold above in vitro EC50 for WT HIV-1” value (“median CSF level, fold above” below) ([2]; Q4W group) was 127 fold and the “Total CSF drug” value [2, 6] was 0.0127 (0.0082–0.0159) μg/mL. The Unbound plasma drug [2, 6] was 0.0019 (0.0014–0.0698) μg/mL, the “Total CSF/total plasma (%)” value ([2]; Q4W, n = 3) was 0.344 (0.312–0.421) % and the Total plasma drug ([2]; Q8W (cabotegravir LA 600 mg + rilpivirine LA 900 mg IM every 8 weeks), n = 15, 7 ± 3 days after injection) was 3.92 (1.30–6.41) μg/mL. The “median CSF level, fold above” value ([2]; Q8W group) was 106 fold, the “Total CSF drug” value ([2]; Q8W, n = 13, 7 ± 3 days after injection) was 0.0106 (0.0053–0.0245)^c μg/mL and the “Total CSF/total plasma (%)” value ([2]; Q8W, n = 13) was 0.304 (0.218–0.449)^c %. The Unbound plasma drug [2, 7] was 0.0047 (0.0007–0.0220) μg/mL, the Kp ([2]; Q4W, n = 3) was 0.003 and the Kp ([2]; Q8W, n = 13) was 0.0034. For the same molecule, the “substrate for breast cancer resistance protein (BCRP)” value [3] was “substrate”, the “bound to plasma proteins” value (plasma proteins) was > 99.8% and the “maximum plasma concentrations (geometric mean)” value ([4]; after the fourth dose of cabotegravir) was 2.2 to 4.4 µg/mL. For the same molecule, the “time to maximum plasma concentrations” value [4] was “approximately 1 week”.

For `C[C@@H]1CCO[C@H]2Cn3cc(C(=O)NCc4ccc(F)cc4F)c(=O)c(O)c3C(=O)N12` [dolutegravir], the “CSF inhibitory quotient (ratio of drug concentration to EC50), median” value [5] is given as 66–90 fold and the CSF-to-plasma ratio ([5]; oral administration at 50 mg once daily) is given as 0.41%.

For `O=C1Nc2ccc(Cl)cc2[C@@](C#CC2CC2)(C(F)(F)F)O1` [efavirenz], the “reported CSF distribution” value [5] is given as 0.5%.

For `Cc1cc(C#N)cc(C)c1Oc1nc(Nc2ccc(C#N)cc2)nc(N)c1Br` [etravirine], the “protein binding in CSF” value [1] is given as “predominantly protein-bound” and the “reported CSF distribution” value [5] is given as 1%.

For `Cc1cc(/C=C/C#N)cc(C)c1Nc1ccnc(Nc2ccc(C#N)cc2)n1` [rilpivirine], the “in vitro EC50 for WT HIV-1” value (WT HIV-1) is listed as 0.27 ng/mL, the “substrate for P-glycoprotein” value (P-glycoprotein) is listed as “not a substrate” and the “median CSF level, fold above” value ([2]; Q4W group) is listed as 6 fold. The Total plasma drug [2, 6] was 134 (83.0–187) ng/mL, the “Total CSF drug” value ([2]; Q4W, n = 3) was 1.67 (1.40–2.47) ng/mL and the “Total CSF/total plasma (%)” value ([2]; Q4W, n = 3) was 1.32%. The “Total CSF/total plasma (%)” value ([2]; Q4W, n = 3, listed as Rilpivirine) was 1.32 (1.25–1.69) %, the “median CSF level, fold above” value ([2]; Q8W group) was 7 fold and the “Total CSF/total plasma (%)” value ([2]; Q8W, n = 13) was 1.07%. The “Total CSF/total plasma (%)” value ([2]; Q8W, n = 13, listed as Rilpivirine) was 1.07 (NQ to 1.52)^c^, d %, the Total plasma drug [2, 7] was 192 (91.7–378) ng/mL and the Kp ([2]; Q4W, n = 3) was 0.0107. The Kp ([2]; Q8W, n = 13) was 0.0132, the “plasma concentration in the participant with non-quantifiable CSF level” value ([2]; single participant) was 117 ng/mL and the “CSF concentration in the one participant with non-quantifiable level” value ([2]; single participant, Q8W, not quantifiable) was “under 1 ng/mL”. The “substrate for breast cancer resistance protein (BCRP)” value [3] was “not a substrate”, the “bound to plasma proteins” value (plasma proteins) was 99.7% and the CSF-to-plasma ratio ([5]; 25 mg administered orally for 60 days) was 1.4%. For the same molecule, the “maximum plasma concentrations (geometric mean)” value ([4]; after the second dose of rilpivirine) was 0.126 to 0.168 µg/mL and the “time to maximum plasma concentrations” value [4] was “approximately 1 week”.
